Test: Compound was evaluated for inhibitory effect against protein phosphatase I (PP-I)

| SMILES | IC50 [µM] |
| --- | --- |
| CCCCCCCCCCCCCCCC(=O)OC[C@@H](O)[C@H]1OC(=O)[C@]2(O)CCC(O)O[C@]12OC (stereo partly drawn) [Hexadecanoic acid (R)-2-((4aS,7R,7aR)-2,4a-dihydroxy-7a-methoxy-5-oxo-hexahydro-furo[3,4-b]pyran-7-yl)-2-hydroxy-ethyl ester] | 11 |
| CCCCCCCCCCCCCCCC(=O)OC[C@@H](O)[C@H]1OC(=O)[C@]2(CCC(OC(C)C)O2)C1=O (stereo partly drawn) [Hexadecanoic acid (R)-2-hydroxy-2-((5S,8R)-2-isopropoxy-6,9-dioxo-1,7-dioxa-spiro[4.4]non-8-yl)-ethyl ester] | 3 |

Source: BindingDB's records for doi:10.1016/s0960-894x(00)00294-8 (Universität Göttingen, 2000)
